# Assay results reported in patent publication EP0468504B1, “A novel antibiotic, balhimycin, a process for its production and its use as pharmaceutical” (HOECHST AKTIENGESELLSCHAFT, priority 1990, dated 1992).
# Counter-ions that a name gives are not always drawn.
# How the values were obtained:
# Assay in all cases: MIC, antibacterial activity
# Format in all cases: cell-based
# S. aureus 209 P = system: S. aureus 209 P
# Staph. epidermidis 178 = system: Staph. epidermidis 178
# S. aureus (MethR) = system: S. aureus (MethR)
# E. coli 9632 = system: E. coli 9632
# S. aureus 3066 (MethR) = system: S. aureus 3066 (MethR)
# Staph. haemolyticus 712 = system: Staph. haemolyticus 712
# S. epi. 825 = system: S. epi. 825
# S. aureus E 690 (MethR) = system: S. aureus E 690 (MethR)
# [1] = system: Streptococcus faecalis ATCC 29212
# S. faecium D-65 = system: S. faecium D-65
# S. faec. D 21777 = system: S. faec. D 21777
# S. faecium D-59 = system: S. faecium D-59
# [2] = system: S. epi. 823 (Teicoplanin R)
# S. faec. D Endococcen = system: S. faec. D Endococcen
# [3] = system: S. haemo. 809 (Teicoplanin R)
# Ps. aeruginosa = system: Ps. aeruginosa
# P. vulgaris = system: P. vulgaris
structure (smiles),measurement,setting,value
"CNC(CC(C)C)C(=O)NC1C(=O)NC(CC(N)=O)C(=O)NC2C(=O)NC3C(=O)NC(C(=O)NC(C(=O)O)c4cc(O)cc(O)c4-c4cc3ccc4O)C(OC3C[C@](C)(N)C(=O)C(C)O3)c3ccc(c(Cl)c3)Oc3cc2cc(c3OC2O[C@H](CO)C(O)[C@H](O)C2O)Oc2ccc(cc2Cl)C1O (some centres unmarked) [Balhimycin trifluoroacetate, Balhimycin]",MIC,S. aureus 209 P,0.39 µg/mL
same,MIC,Staph. epidermidis 178,1.56 µg/mL
same,MIC,S. aureus (MethR),0.39 µg/mL
same,MIC,E. coli 9632,>100 µg/mL
same,MIC,S. aureus 3066 (MethR),0.78 µg/mL
same,MIC,Staph. haemolyticus 712,1.56 µg/mL
same,MIC,S. epi. 825,3.12 µg/mL
same,MIC,S. aureus E 690 (MethR),0.39 µg/mL
same,MIC,[1],1.56 µg/mL
same,MIC,S. faecium D-65,0.78 µg/mL
same,MIC,S. faec. D 21777,0.78 µg/mL
same,MIC,S. faecium D-59,1.56 µg/mL
same,MIC,[2],12.5 µg/mL
same,MIC,S. faec. D Endococcen,0.78 µg/mL
same,MIC,[3],6.25 µg/mL
same,MIC,Ps. aeruginosa,>100 µg/mL
same,MIC,P. vulgaris,>100 µg/mL
